# Measured values from patent publication US20070014803A1, “METHODS AND COMPOSITIONS FOR DIAGNOSIS AND TREATMENT OF VIRAL AND BACTERIAL INFECTIONS” (Arbor Vita Corporation, priority 2005, published 2007).
# Where no end group is shown, it is not given here.
# Legend:
# Assay in all cases: PRISM Matrix ELISA G assay, peptide titration
# Type in all cases: binding
# [1] = molecular target: T1, PDZ protein NSP (Homo sapiens, UniProt Q92743); details: for binding to the PDZ protein NSP, in words: summary of the titrations
# T1 construct: made in house
# Method: (§1) (1) A PDZ-domain polypeptide is bound to a surface, e.g. a protein binding surface. In a preferred embodiment, a GST/PDZ fusion protein containing one or more PDZ domains is bound to a polystyrene 96-well plate. […] In one embodiment, the GST/PDZ fusion protein is bound via an anti-GST antibody that is coated onto the 96-well plate. Adequate binding to the plate can be achieved when: • a. 100 μL per well of 5 μg/mL goat anti-GST polyclonal antibody (Pierce) in PBS is added to a polystyrene 96-well plate (e.g., Nunc Polysorb) at 4° C. for 12 hours. • b. The plate is blocked by addition of 200 μL per well of PBS/BSA for 2 hours at 4° C. • c. The plate is washed 3 times with PBS. • d. 50 μL per well of 5 μg/mL GST/PDZ fusion protein) or, as a negative control, GST polypeptide alone (i.e. not a fusion protein) in PBS/BSA is added to the plate for 2 hours at 4° C. • e. the plate is again washed 3 times with PBS.
# (§2) (2) Biotinylated PL peptides are allowed to react with the surface by addition of 50 μL per well of 20 μM solution of the biotinylated peptide in PBS/BSA for 10 minutes at 4° C., followed by an additional 20 minute incubation at 25° C. The plate is washed 3 times with ice cold PBS.
# (§3) (3) The binding of the biotinylated peptide to the GST/PDZ fusion protein surface can be detected using a variety of methods and detectors. In an exemplary procedure, 100 μL per well of 0.5 μg/mL streptavidin-horse radish peroxidase (HRP) conjugate dissolved in BSA/PBS is added and allowed to react for 20 minutes at 4° C. The plate is then washed 5 times with 50 mM Tris pH 8.0 containing 0.2% Tween 20, and developed by addition of 100 μL per well of HRP-substrate solution (TMB, Dako) for 20 minutes at room temperature (RT). The reaction of the HRP and its substrate is terminated by addition of 100 μL per well of 1 M sulfuric acid, and the optical density (O.D.) of each well of the plate is read at […].
# (§4) (4) Specific binding of a PL peptide and a PDZ domain polypeptide is determined by comparing the signal from the well(s) in which the PL peptide and PDZ domain polypeptide are combined, with the background signal(s). The background signal is the signal found in the negative control(s). Typically a specific or selective reaction is at least twice background signal, more typically more than 5 times background, and most typically 10 or more times the background signal. In addition, a statistically significant reaction involves multiple measurements of the reaction with the signal and the background differing by at least two standard errors, more typically four standard errors, and most typically six or more standard errors. Correspondingly, a statistical test (e.g. a T-test) comparing repeated measurements of the signal with -repeated measurements of the background will result in a p-value <0.05, more typically a p-value <0.01, and most typically a p-value <0.001 or less. As noted, in an embodiment of the “G” assay, the signal from binding of a given PL peptide to immobilized (surface bound) GST polypeptide alone is one suitable negative control (sometimes referred to as “B 1”). Because all measurement are done in multiples (i.e. at least duplicate) the arithmetic mean (or, equivalently, average) of several measurements is used in determining the binding, and the standard error of the mean is used in determining the probable error in the measurement of the binding. The standard error of the mean of N measurements equals the square root of the following: the sum of the squares of the difference between each measurement and the mean, divided by the product of (N) and (N−1). Thus, in one embodiment, specific binding of the PDZ protein to the platebound peptide is determined by comparing the mean signal (“mean S”) and standard error of the signal (“SE”) for a particular PL-PDZ combination with the mean B I.
# (§5) Two different types of ELISA assays were used to test the HIV Peptides 1904 and 1905. […]
# [2] = molecular target: T2, PDZ protein Rim2 (Homo sapiens, UniProt Q9UQ26); details: for EC50: read-out: EC50 of binding to the PDZ protein Rim2, regular G assay titration, GST/PDZ fusion (FIG. 1C, FIG. 4C); for binding to the PDZ protein Rim2, in words: summary of the titrations
# T2 construct: made in house
# T2 sequence (Q9UQ26 632-757): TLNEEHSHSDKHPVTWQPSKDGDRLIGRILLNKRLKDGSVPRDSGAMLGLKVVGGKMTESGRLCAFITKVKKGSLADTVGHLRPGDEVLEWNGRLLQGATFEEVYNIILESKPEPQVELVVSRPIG
# Method: as §1, §2, §3, §4, §5
# [3] = molecular target: T3, PDZ protein ZO-1 d2 (domain 2) (Homo sapiens, UniProt Q07157, DEL264-264); details: for EC50: read-out: EC50 of binding to the PDZ protein ZO-1 d2, regular G assay titration, GST/PDZ fusion (FIG. 1B, FIG. 4B); for binding to the PDZ protein ZO-1 d2, in words: summary of the titrations
# T3 construct: made in house
# T3 sequence (Q07157 with tags, fused parts or gaps DEL264-264): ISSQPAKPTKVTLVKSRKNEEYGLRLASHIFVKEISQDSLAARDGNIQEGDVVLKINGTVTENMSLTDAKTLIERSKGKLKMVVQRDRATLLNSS
# Method: as §1, §2, §3, §4, §5
# T1 sequence (Q92743 359-473): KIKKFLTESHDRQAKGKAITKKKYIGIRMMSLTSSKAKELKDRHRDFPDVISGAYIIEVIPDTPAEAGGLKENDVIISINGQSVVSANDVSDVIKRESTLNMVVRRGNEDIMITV
substance,measurement,setting,value
YGRKKRRQRRRRQGFERALL-OH [Peptide 1905],EC50,"[1]; read-out: EC50 of binding to the PDZ protein NSP, regular G assay titration, GST/PDZ fusion (FIG. 1D, FIG. 4D)",166 nM
same,"binding to the PDZ protein NSP, in words",[1],strong binding
same,EC50,[2],182 nM
same,"binding to the PDZ protein Rim2, in words",[2],strong binding
same,EC50,[3],184 nM
same,"binding to the PDZ protein ZO-1 d2, in words",[3],strong binding
YGRKKRRQRRRRQGLERILL-OH [Peptide 1904],"binding to the PDZ protein NSP, in words",[1],strong binding
same,EC50,[2],410 nM
same,"binding to the PDZ protein Rim2, in words",[2],strong binding
same,EC50,[3],170 nM
same,"binding to the PDZ protein ZO-1 d2, in words",[3],strong binding
